For two compounds, Km, DME hydrolysis rate and NPA hydrolysis rate results are on record in publication PMC8023712, “Carboxylesterase Activities and Protein Expression in Rabbit and Pig Ocular Tissues” (Molecular Pharmaceutics, 2021).

Bounds are passed on as bounds.

The test system of one data set is rhCES1. The following applies: read-out: Km literature data, DME; cited from earlier work.
Data set [1] has as its target T1, CES1 (human liver homogenate) (Homo sapiens, UniProt P23141).
T1 construct: Homogenates for rat whole eye (covered by the license # ESAVI/8621/04.10.07/2017) and human liver; from tissue; host or cells: human liver homogenate (donated, Oulu University Hospital)
In words: DME hydrolysis in human liver homogenate (positive control). It counts as in vitro ADME. The following applies: 5 μM DME. The source says: (§1) CES enzymes are localized in the endoplasmic reticulum,[2],[45] but some activity resides in the cytoplasm.[46] Therefore, to prevent possible losses during sample preparation, we used whole tissue homogenates to characterize CES expression and activity in ocular tissues. The homogenization of pooled ocular tissues in 1 × DPBS buffer (3:1 v/w) was done with a Dounce homogenizer (Thomas Scientific; Swedesboro, NJ) with 5–10 strokes, depending on the ocular tissue. Aqueous humor and vitreous were homogenized without adding buffer. Tissue homogenization buffer was supplemented with protease inhibitor cocktail without phenylmethylsulfonyl fluoride (PMSF), a known inhibitor of esterases.[47],[48] After homogenization, all samples were sonicated at 750 W (Vibra-Cell VCX50 and a four-element microtip probe; Sonics & Materials Inc., Newton, CT) using four pulses of 45 s with a cooling interval of 15 s. […]
(§2) The hydrolysis of DME was monitored with slight modifications using the published bioluminescence-based assay[13],[21] where recombinant firefly luciferase enzyme was used to detect the D-luciferin that formed in the reaction mixture. […] The formed D-luciferin was quantitated by an injection of 73 μL of the luciferase detection reagent [3 μg of rLuciferase, 50 nmol of ATP, and 50 nmol of MgCl2 in PBS], and the luminescence was measured immediately with a Victor^2 Microplate Reader (560 nm, 1 s).

Data set [2] relates to CES1 (rabbit ocular tissue homogenates). In words: DME hydrolysis in rabbit ocular tissue homogenates. The following applies: for DME hydrolysis rate: 5 μM DME. Here is the method:
(§3) The hydrolysis of DME was monitored with slight modifications using the published bioluminescence-based assay[13],[21] where recombinant firefly luciferase enzyme was used to detect the D-luciferin that formed in the reaction mixture. The DME hydrolysis reaction was done in white-coated 96-well plates (Thermo Scientific Sterilin Microtiter Plates). Tissue lysates (5 μg of protein) were preincubated in 0.1 M PBS, pH 6.5. The reaction was initiated by adding DME to a final concentration of 5 μM in a final volume of 200 μL. The hydrolysis of DME was allowed to proceed for 20 min at 37 °C. The formed D-luciferin was quantitated by an injection of 73 μL of the luciferase detection reagent [3 μg of rLuciferase, 50 nmol of ATP, and 50 nmol of MgCl2 in PBS], and the luminescence was measured immediately with a Victor^2 Microplate Reader (560 nm, 1 s). Serial 2-fold dilutions of D-luciferin in 0.1 M PBS, pH 6.5 were used to generate the standard curve (0.156–10 μM).
(§4) Inhibitors were tested at a final concentration range of 0.4–400 μM except for PMSF (0.3–2.5 mM).

In data set [3] the test system is CES1 (rat whole eye homogenate). In words: DME hydrolysis in rat whole eye homogenate (positive control). It counts as in vitro ADME. To be noted: 5 μM DME.
From the text: as §1, §2

The subject of data set [4] is CES1 (pig ocular tissue homogenates). In words: DME hydrolysis in pig ocular tissue homogenates. The following applies: for DME hydrolysis rate: 5 μM DME. Here is the method: as §3, §4
In data set [5] the test system is multiple esterases (rabbit cornea). To be noted: NPA, read-out: Km literature data; cited from earlier work.
The next data set deals with multiple esterases (HLM). The following applies: NPA, read-out: Km literature data; cited from earlier work.
Data set [6] has as its system multiple esterases (pig ocular tissue homogenates). In words: NPA hydrolysis in pig ocular tissue homogenates. To be noted: for NPA hydrolysis rate: 400 μM NPA. It counts as in vitro ADME. The method, then: (§5) NPA hydrolysis was performed with a slight modification to our previous protocol[22] in clear flat-bottom 96-well Thermo Scientific Sterilin Microtiter plates at 37 °C. Diluted ocular samples (8 μg of protein in 80 μL of PBS) were pipetted into the reaction wells, and the background absorbance was measured at 405 nm for 10 min of preincubation. […] Changes in absorbance at 405 nm were recorded with a Victor^2 Microplate Reader (PerkinElmer Wallac 1420, St.

The test system of a further data set is pig liver CES1. To be noted: NPA, read-out: Km literature data; cited from earlier work.
Data set [7] concerns multiple esterases (rabbit ocular tissue homogenates). In words: NPA hydrolysis in rabbit ocular tissue homogenates. It counts as in vitro ADME. The following applies: for NPA hydrolysis rate: 400 μM NPA. Here is the method: as §5

T1 sequence (P23141 18-567): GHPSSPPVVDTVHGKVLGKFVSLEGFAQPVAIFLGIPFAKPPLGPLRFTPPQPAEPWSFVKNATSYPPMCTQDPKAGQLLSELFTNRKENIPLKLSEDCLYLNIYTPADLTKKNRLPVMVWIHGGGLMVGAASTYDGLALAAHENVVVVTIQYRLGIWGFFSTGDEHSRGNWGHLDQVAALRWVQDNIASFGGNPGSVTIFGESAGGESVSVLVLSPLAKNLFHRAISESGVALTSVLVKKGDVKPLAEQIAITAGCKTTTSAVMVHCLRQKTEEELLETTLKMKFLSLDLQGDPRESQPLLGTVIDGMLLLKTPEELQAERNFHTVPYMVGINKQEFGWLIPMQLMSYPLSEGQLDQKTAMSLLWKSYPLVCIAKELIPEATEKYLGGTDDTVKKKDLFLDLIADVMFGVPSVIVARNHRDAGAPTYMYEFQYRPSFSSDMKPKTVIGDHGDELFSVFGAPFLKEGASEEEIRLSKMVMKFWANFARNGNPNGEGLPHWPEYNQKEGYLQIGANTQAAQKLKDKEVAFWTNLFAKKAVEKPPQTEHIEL

As to `COC(=O)[C@H]1CSC(c2nc3ccc(O)cc3s2)=N1` [DME, D-luciferin methyl ester], the Km in the data set with rhCES1 is ~5 µM; in data set [2] (read-out: Km (this study), DME hydrolysis in rabbit cornea), 2.5 ± 0.8 µM; in [4] (read-out: Km (this study), DME hydrolysis in pig cornea), 2.7 ± 1.3 µM. For the same compound, the DME hydrolysis rate is 3.6 ± 0.7 nmol/min/mg in [1]; 0.1 to 0.5 nmol/min/mg in [2] (rabbit RPE and retina); 0.5 to 1.0 nmol/min/mg in data set [2] (rabbit aqueous humor and vitreous); ≥ 1 nmol/min/mg in data set [2] (rabbit conjunctiva, cornea and choroid); 2.6 ± 0.2 nmol/min/mg in data set [3]; 0.1 to 0.2 nmol/min/mg in data set [4] (pig RPE, aqueous humor and vitreous). The DME hydrolysis rate in data set [4] (pig conjunctiva, cornea and choroid) is ≥ 1 nmol/min/mg; in [4] (pig retina) it was 0.5 to 1 nmol/min/mg.

As for `CC(=O)Oc1ccc([N+](=O)[O-])cc1` [NPA, 4-Nitrophenyl acetate], the Km was 68 ± 15 µM in data set [5]; 198 ± 17 µM in the data set on multiple esterases (HLM); 125 ± 13 µM in data set [6] (NPA hydrolysis in pig cornea, read-out: Km (this study)); 520 ± 60 µM with pig liver CES1; 263 ± 15 µM in data set [7] (NPA hydrolysis in rabbit cornea, read-out: Km (this study)). In addition, the NPA hydrolysis rate in data set [6] (pig RPE) is listed as 8.4 ± 1.0 nmol/min/mg; in [6] (pig, all ocular tissues except RPE), “around 20 nmol/min/mg”; in [7] (rabbit RPE), 17.5 ± 2.7 nmol/min/mg; in [7] (rabbit choroid), 81.6 ± 6.8 nmol/min/mg; in data set [7] (rabbit, most ocular tissue homogenates, 37 °C), 30–45 nmol/min/mg protein.

Broadly, the Km is the concentration of substrate that gives half-maximal velocity.
